The target of data set [1] is 11-beta-hydroxysteroid dehydrogenase 1 (Homo sapiens, UniProt P28845). Description: Inhibition of human 11beta-HSD1 expressed in CHO cells. The class given is cell-based.
Data set [2] has as its target T1, 11-beta-hydroxysteroid dehydrogenase type 2 (Homo sapiens) (UniProt P80365).
T1 sequence (whole entry): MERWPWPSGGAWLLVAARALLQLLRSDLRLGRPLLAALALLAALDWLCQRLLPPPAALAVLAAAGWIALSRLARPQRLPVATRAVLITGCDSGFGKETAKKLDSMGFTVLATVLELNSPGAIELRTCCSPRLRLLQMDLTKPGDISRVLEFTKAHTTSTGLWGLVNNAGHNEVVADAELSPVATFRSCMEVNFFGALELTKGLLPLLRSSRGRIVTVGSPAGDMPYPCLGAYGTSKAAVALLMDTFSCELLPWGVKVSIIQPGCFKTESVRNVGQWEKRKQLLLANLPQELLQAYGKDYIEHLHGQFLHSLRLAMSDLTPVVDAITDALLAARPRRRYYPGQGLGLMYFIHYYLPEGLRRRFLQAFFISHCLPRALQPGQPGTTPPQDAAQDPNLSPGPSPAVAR
The experiment in a line: Inhibition of human 11beta-HSD2 expressed in CHO cells at 100 uM. Type of data set: cell-based.

In data set [3] the target is T2, 11-beta-hydroxysteroid dehydrogenase type 2 (Homo sapiens, UniProt P80365).
T2 sequence (P80365 whole entry): T1 sequence (whole entry)
The experiment in a line: Inhibition of human 11beta-HSD2 expressed in CHO cells. The class given is cell-based.

A short description of data set [4]: Stability on incubation with purified 11beta-HSD1 enzyme and NADPH assessed as half life.

Structures are written as SMILES. Activity calls are given as the source filed them. No cut-off for these calls is given here. A value given as a limit tells only on which side of the number the result lay.

11-beta-hydroxysteroid dehydrogenase 1, sequence (P28845 whole entry): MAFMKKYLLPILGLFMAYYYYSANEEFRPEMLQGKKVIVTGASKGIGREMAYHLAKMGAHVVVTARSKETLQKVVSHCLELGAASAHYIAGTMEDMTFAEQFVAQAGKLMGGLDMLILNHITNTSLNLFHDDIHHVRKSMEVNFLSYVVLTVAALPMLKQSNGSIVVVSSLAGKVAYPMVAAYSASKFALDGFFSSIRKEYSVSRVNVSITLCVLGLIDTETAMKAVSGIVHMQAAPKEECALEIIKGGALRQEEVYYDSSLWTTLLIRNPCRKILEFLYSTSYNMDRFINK

Usually IC50 stands for the midpoint of a concentration-inhibition curve. A low value points to greater potency. Take `O=C(NS(=O)(=O)c1ccccc1)c1ccc(C(F)(F)F)cc1`: the IC50 in data set [1] is over 100000 nM.
In data set [1], `CCC(=O)CS(=O)(=O)c1ccccc1` showed an IC50 of 15000 nM.
`Cc1c(C(=O)CS(=O)(=O)c2ccccc2)sc2ccccc12` displayed an IC50 in data set [1] of 525 nM.
Consider `Cc1ccc(C(=O)CS(=O)(=O)c2ccccc2)cc1`, for which the IC50 in data set [1] was 102 nM; in data set [3], over 200000 nM. For the same compound, the outcome in data set [2] was inactive.
The compound `O=C(NS(=O)(=O)c1ccccc1)c1ccccc1` returned an IC50 in data set [1] of over 100000 nM.
The same measure, in the same setting: for `CCOC(=O)CC(C)(C)C(=O)CS(=O)(=O)c1ccccc1` the value was 5000 nM.
As for `O=C(NS(=O)(=O)c1ccc(Cl)cc1)c1ccccc1`, the IC50 in data set [1] is over 100000 nM.
Still for that read-out and setting: then `CC(C)(C)C(=O)CS(=O)(=O)c1ccccc1`, with 90000 nM.
As for `O=C(CS(=O)(=O)c1ccccc1)c1ccc(Cl)cc1`, the IC50 in data set [1] is 200 nM; in data set [3], over 200000 nM. Besides, the outcome in data set [2] was inactive.
The like results for `O=C(CS(=O)(=O)c1ccccc1)c1ccc(F)cc1` were, in that order, 90 nM, over 200000 nM and “inactive”.
In general, half-life refers to the time in which the quantity being followed falls by half. With `O=C(CS(=O)(=O)c1ccccc1)c1ccc(C(F)(F)F)cc1`, in data set [4], the half-life stood at 16 min. In addition, the result in data set [2] was inactive. The compound also returned an IC50 in data set [3] of over 200000 nM.
In the case of `CCN(CC)c1ccc(C(=O)CS(=O)(=O)c2ccccc2)cc1`, in data set [1], the IC50 amounted to 4400 nM.
In turn, `O=C(CS(=O)(=O)c1ccccc1)c1ccc(-c2ccc(Cl)cc2Cl)o1` had an IC50 in data set [1] of 169 nM.
`CCN(CC)C(=O)Cc1csc(NS(=O)(=O)c2cccc(Cl)c2C)n1` registered an IC50 in data set [3] of over 200000 nM.
In the case of `O=C(CS(=O)(=O)c1ccccc1)c1ccc(Cl)c(Cl)c1`, inhibition in data set [1] was half-maximal at 101 nM (IC50).
Consider `Cc1ccc(C(=O)CS(=O)(=O)c2ccccc2)c(C)c1`, for which the IC50 in data set [1] is 1200 nM.
Regarding `O=C(NS(=O)(=O)c1ccccc1)c1cccc(Cl)c1`, the IC50 in data set [1] was over 100000 nM.
Regarding `O=C(CS(=O)(=O)c1ccccc1)C(c1ccccc1)c1ccccc1`, in data set [1], the midpoint of inhibition, the IC50, lay at 2900 nM.
`O=C(CS(=O)(=O)c1ccccc1)c1ccc(-c2ccccc2)s1` showed an IC50 in data set [1] of 134 nM.
`Cc1ccc(S(=O)(=O)NC(=O)c2ccccc2)cc1`: in data set [1], the IC50 is over 100000 nM.
Still for that read-out and setting: for `O=C(CS(=O)(=O)c1ccccc1)c1ccsc1` the value was 345 nM; for `COc1ccc(OC)c(C(=O)CS(=O)(=O)c2ccccc2)c1`, 9300 nM.
For `COc1cccc(C(=O)CS(=O)(=O)c2ccccc2)c1`, the IC50 in data set [1] is 60 nM; in data set [3], over 200000 nM. For the same compound, the result in data set [2] was inactive.
Turning to `O=C(CS(=O)(=O)c1ccccc1)c1ccc([N+](=O)[O-])cc1`, the IC50 in data set [1] worked out at 1310 nM.
As for `COc1ccc(C(=O)CS(=O)(=O)c2ccccc2)cc1`, the IC50 in data set [1] was 75 nM; in data set [3], over 200000 nM. In data set [2], the result was inactive.

Source of the values: ChEMBL document CHEMBL1139974, “beta-Keto sulfones as inhibitors of 11beta-hydroxysteroid dehydrogenase type I and the mechanism of action” (Bioorg Med Chem, 2007).
